{"source": "patent US20240067600A1", "about": "“SMALL MOLECULE INHIBITORS OF THE MITOCHONDRIAL PERMEABILITY TRANSITION PORE (mtPTP)” (UNIVERSITY OF KANSAS, priority 2014, published 2024)", "type_in_all_cases": "in vivo", "key": {"[1]": {"system": "exon 9 col6a1 morphant zebrafish", "assay": "Spontaneous coiling of exon 9 col6a1 morphant zebrafish embryos", "conditions": "5 and 10 μM in fish water from 21 hpf; read at 24 hpf", "experimental": "(§1) Zebrafish and embryo maintenance. Adult zebrafish were maintained in the facility of the University of Padova containing aerated, 28.5° C.-conditioned saline water according to standard protocols. Fish were kept under a 14 h light-10 h dark cycle. For mating, males and females were separated in the late afternoon, and were freed to start courtship the next morning, which ended with egg deposition and fecundation. Eggs were collected, washed with fish water (0.5 mM NaH2PO4, 0.5 mM NaHPO4, 0.2 mg/L methylene blue, 3 mg/L instant ocean) and embryos were maintained at 28.5° C. All protocols and manipulations with zebrafish were performed as described in C. B. Kimmel, W. W. Ballard, S. R. Kimmel, B. Ullmann, T. F. Schilling, Dev. Dyn. […]\n(§2) Motor activity. Spontaneous coiling rates were recorded by observing the number of coiling events in 15 s for single embryos at 24 hpf using light microscopy. Touch-evoked escape response was measured at 48 hpf by observing the ability of larvae to escape after touching the body with a little tip. […]\n(§3) Statistical analysis. Differences between control and compound treated samples were determined by one-way ANOVA test with Bonferroni correction using GraphPad Prism (version 5.1 for Windows). […] For FIG. 3, the total number of embryos used is n=35 for each condition; *p<0.05, ***p<0.001, as determined by χ^2 test and oneway ANOVA with Bonferroni correction."}, "[2]": {"system": "exon 9 col6a1 morphant zebrafish", "assay": "Muscle birefringence assay in exon 9 col6a1 morphant zebrafish embryos", "experimental": "as §1, with “C.” for “C. B. Kimmel, W. W. Ballard, S. R. Kimmel, B. Ullmann, T. F. Schilling, Dev. Dyn.”\nBirefringence assay. Muscle birefringence was measured at 48 hpf on tricaine-anesthetized embryos by taking advantage of muscle fiber anisotropy. It was measured using two polarizing filters on a Leica M165FC stereomicroscope. Briefly, anesthetized embryos were placed on a glass slide, and muscle light refraction was analyzed by using two polarizing filters. […] Integrated area of birefringence was calculated by using ImageJ software, as disclosed in J. Berger, T. Sztal, P. D. Currie, Biochem. Biophys. […]\nStatistical analysis. Differences between control and compound treated samples were determined by one-way ANOVA test with Bonferroni correction using GraphPad Prism (version 5.1 for Windows). […]"}, "[3]": {"system": "exon 9 col6a1 morphant zebrafish", "assay": "Touch-evoked escape response of exon 9 col6a1 morphant zebrafish embryos", "conditions": "5 and 10 μM in fish water from 21 hpf; read at 48 hpf", "experimental": "as §1, §2, §3"}}, "data": [{"smiles": "Cc1c(Cl)cccc1NC(=O)c1cc(-c2ccc(F)c(O)c2)on1", "note": "[compound 60, N-(3-Chloro-2-methylphenyl)-5-(4-fluoro-3-hydroxyphenyl)isoxazole-3-carboxamide]", "values": [{"measurement": "motor function: spontaneous coiling events (FIG. 1)", "setting": "[1]", "value": "dramatic improvement in motor function"}, {"measurement": "muscle defects by muscle birefringence (FIG. 3)", "setting": "[2]; 5 and 10 μM in fish water from 21 hpf, read at 48 hpf", "value": "largely ameliorated"}, {"measurement": "total birefringence scores", "setting": "[2]; 48 hpf, ANOVA, p<0.05", "value": "significant recovery of muscle defects"}, {"measurement": "motor function: touch-evoked response (FIG. 2)", "setting": "[3]", "value": "dramatic improvement in motor function"}]}]}
